Laboratory results published in patent EP0357332A2, “Renin inhibitors useful for the treatment of aids by inhibition of HIV protease” (MERCK & CO. INC., priority 1988, dated 1990).

Tests used:
[1] = target: T1, synthetic protease [amino acid residues 69-167 of the pol open reading frame] (Human immunodeficiency virus type 1 group M subtype B, UniProt P03366); assay: Assay for inhibition of synthetic viral protease with peptide substrate Val-Ser-Gln-Asn-Tyr-Pro-Ile-Val (HPLC); format: biochemical, HIV; details: pH 5.5, 30°C, 1 hr
T1 construct: amino acid residues 69-167 of the pol open reading frame in Ratner, L. et al, Nature, 313, 277 (1985); made in house; host or cells: chemical synthesis (Merrifield solid-phase), no expression host
Description: Inhibition studies of the reaction of the synthetic protease [amino acid residues 69-167 of the pol open reading frame in Ratner, L. et al, Nature, 313, 277 (1985) and synthesized by Merrifield solid-phase synthesis] with a peptide substrate [Val-Ser-Gln-Asn-Tyr-Pro-Ile-Val, 2 mg/mL when the reaction is initiated] were in 50 mM Na acetate, pH 5.5, at 30°C for 1 hr. Various concentrations of inhibitor in 1.0 µl DMSO were added to 36 µl of assay solution and the reaction initiated by the addition of 4 ul (1.6 µg) of synthetic protease. The reaction was quenched with 160 ul of 12% acetic acid. Products of the reaction were separated by HPLC (VYDAC wide pore 5 cm C-18 reverse phase, acetonitrile gradient, 0.1% trifluoroacetic acid). The extent of inhibition of the reaction was determined from the peak heights of the products. HPLC of the products, independently synthesized, provided quantitation standards and confirmation of the product composition.

synthetic viral protease = target: T2, synthetic viral protease (Human immunodeficiency virus type 1 group M subtype B, UniProt P03366); assay: Inhibition of beta-casein hydrolysis by synthetic viral protease (14C-beta-casein, TCA soluble counts); format: biochemical, HIV; details: 14C-beta-casein substrate, 4 hours
T2 construct: amino acid residues 69-167 of the pol open reading frame in Ratner, L. et al, Nature, 313, 277 (1985); made in house; host or cells: chemical synthesis (Merrifield solid-phase), no expression host
Description: Inhibition of the synthetic viral protease reaction, of Example 2, with ¹⁴C - beta-casein as substrate in lieu of peptide substrates, was performed. Beta-casein (Sigma) was dialysed overnight at 4°C in 40 mM KPO₄, pH 7.0. Four microliters of the substrate (0.31 mg/ml) are used in each 40 µl reaction. After reaction with the protease for 4 hours, 10 µl of 10% bovine serum albumin and 500 µl of 10% trichloroacetic acid are added, the sample placed on ice for 30 min and centrifuged for 10 min at 15,000 g. From the supernatant a 300 µl aliquot is withdrawn and diluted into 7 ml liquid scintillation cocktail. Typical background level of TCA soluble counts (no enzyme added) is 200 and no inhibitor samples give a net signal of 1000 cpm.

[2] = Inh. Conc. 0.01 µM, listed as Cmpd A
[3] = Inh. Conc. 0.1 µM, listed as Cmpd A
[4] = Inh. Conc. 1 µM, listed as Cmpd A
[5] = Inh. Conc. 0.01 µM, listed as Cmpd B
[6] = Inh. Conc. 0.1 µM, listed as Cmpd B
[7] = Inh. Conc. 1 µM, listed as Cmpd B

Row | Compound | PERCENT INHIBITION [1, 2] [%] | PERCENT INHIBITION [1, 3] [%] | PERCENT INHIBITION [1, 4] [%] | PERCENT INHIBITION ([1]; Inh. Conc. 100 µM) [%] | PERCENT INHIBITION (synthetic viral protease; [2]) [%] | PERCENT INHIBITION (synthetic viral protease; [3]) [%] | PERCENT INHIBITION (synthetic viral protease; [4]) [%] | PERCENT INHIBITION (synthetic viral protease; Inh. Conc. 10 µM, listed as Cmpd A) [%] | PERCENT INHIBITION (synthetic viral protease; Inh. Conc. 100 µM, listed as Cmpd A) [%] | PERCENT INHIBITION ([1]; Inh. Conc. 0.001 µM) [%] | PERCENT INHIBITION [1, 5] [%] | PERCENT INHIBITION [1, 6] [%] | PERCENT INHIBITION [1, 7] [%] | PERCENT INHIBITION ([1]; Inh. Conc. 10 µM) [%] | PERCENT INHIBITION (synthetic viral protease; Inh. Conc. 0.001 µM) [%] | PERCENT INHIBITION (synthetic viral protease; [5]) [%] | PERCENT INHIBITION (synthetic viral protease; [6]) [%] | PERCENT INHIBITION (synthetic viral protease; [7]) [%] | PERCENT INHIBITION (synthetic viral protease; Inh. Conc. 10 µM, listed as Cmpd B) [%] | PERCENT INHIBITION (synthetic viral protease; Inh. Conc. 100 µM, listed as Cmpd B) [%]
1 | CC(C)C[C@H](NC(=O)C(Cc1ccccc1)C[C@H](O)[C@H](Cc1ccccc1)NC(=O)[C@H](Cc1ccccc1)NC(=O)[C@H](Cc1ccccc1)NC(=O)OC(C)(C)C)C(=O)N[C@@H](Cc1ccccc1)C(N)=O (single isomer, unassigned) [A, N′-(1,1-Dimethylethoxycarbonyl)-Phe-Phe-5(S)-Amino-4(S)-Hydroxy-6-Phenyl-2(R or S)-(Phenylmethyl)Hexanoyl-Leu-Phe-Amide] | 0 | 20 | 40 | 100 | 0 | 14 | 82 | 65 | 97 | – | – | – | – | – | – | – | – | – | – | –
2 | CC(C)C[C@H](NC(=O)C(Cc1ccccc1)C[C@H](O)[C@H](Cc1ccccc1)NC(=O)[C@H](Cc1ccccc1)NC(=O)[C@H](Cc1ccccc1)NC(=O)OC(C)(C)C)C(=O)N[C@@H](Cc1ccccc1)C(N)=O (single isomer, unassigned) [Compound B, N′-(1,1-Dimethylethoxycarbonyl)-Phe-Phe-5(S)-Amino-4(S)-Hydroxy-6-Phenyl-2(S or R)-(Phenylmethyl)Hexanoyl-Leu-Phe-Amide] | – | – | – | 100 | – | – | – | – | – | 20 | 60 | 100 | 100 | 100 | 20 | 67 | 97 | 95 | 91 | 60
